Experimental data as given in patent EP0645451A1, “Heparin binding site structural analogues of fibroblast growth factors” (AMERICAN CYANAMID COMPANY, priority 1993, dated 1995).

How the values were obtained:
Assay in all cases: Fluorescence quenching titration, thermodynamic dissociation constant (KD)
[1] = molecular target: T1, human FGF-2 mutant gln¹²⁸FGF-2 (lysine-128 replaced by glutamine) (Homo sapiens, UniProt P09038, A136E/K261Q/S138E); format: binding; settings: tryptophan fluorescence quenching, 10 mM Tris-HCl, pH 7.4, 2 mM dithiothreitol, read-out: KD BCDS
T1 construct: a synthetic gene encoding the 155 amino acid form of human FGF-2; made in house; host or cells: E. coli BL21 plys S
T1 sequence (P09038 134-288 A136E/S138E/K261Q): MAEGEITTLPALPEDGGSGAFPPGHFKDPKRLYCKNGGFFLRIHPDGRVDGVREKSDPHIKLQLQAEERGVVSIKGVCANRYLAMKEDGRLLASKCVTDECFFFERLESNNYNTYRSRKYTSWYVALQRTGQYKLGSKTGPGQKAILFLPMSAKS
Method: (§1) FGF-2 contains a single tryptophan residue at position 123. […] Therefore, the fluorescence properties of FGF-2 and FGF-2 mutants in the presence and absence of heparin and a heparin mimic, β-cyclodextran tetradecasulfate (BCDS) are evaluated in this example.
(§2) Fluorescence titration measurements are conducted in a Perkin-Elmer LS-5 fluorospectrometer using excitation and emission wavelengths of 290 nm and 350 nm, respectively. Two milliliters of FGF solution in 10 mM Tris-HCl, pH 7.4, containing 2 mM of dithiothreitol are placed in a cuvette. […] Concentrations of FGF-2 and gln^128,138FGF-2 are 370 nM and 280 nM, respectively. […] An equivalent tryptophan residue, Trp122, exists in acidic FGF (FGF-1), for which similar fluorescence quenching is obtained.
(§3) The thermodynamic dissociation constant (KD) is obtained from plots of fluorescence intensity versus ligand concentration. The fluorescence intensity data are fitted by non-linear regression by using equation 1 below, where FO is observed fluorescence intensity, FI is initial intensity, Δ F is the difference between final and the initial fluorescence intensities, Ct is the total FGF protein concentration, KD is the thermodynamic dissociation constant, and Lt is the total heparin concentration. It is assumed in equation 1 that the stoichiometry of FGF and heparin in the complex is 1:1. A graphic software Kaleidagraph is used for handling data. [formula] However, in the fluorescence titration experiments the titration curves shown in Figure 1 cannot be fitted directly using equation 1. […] Since the heparin preparation used here is composed of an average of 20 sulfated monosaccharide units per chain, it is likely that more than one FGF molecule is bound per oligosaccharide chain. […] Moreover, it is reasonable to assume that, in the absence of any data to indicate otherwise, the binding sites on heparin are independent and the binding affinities are similar. […] Under this assumption, the effective concentration of the ligand needs to be adjusted by the multiplication of the actual concentrations by the number of possible binding sites. If n is the average number of FGF molecules bound per oligosaccharide, then equation 1 can be modified to give [formula] in which the effective concentration of the ligand is increased by n times.
(§4) Equation 2 is used to fit the data shown in Figure 1 and the values of the two variables, KD and n, are determined by non-linear regression of at least three titration curves for each molecule. An average of four (n = 4) FGF-2 molecules interacting with heparin is obtained. Four binding sites on each heparin molecule are assumed for mutant gln^128,138FGF-2. Since the molecular weight of heparin used in the experiments is about 5000, which has an average of 20 monosaccharide units, about 4 to 6 monosaccharide units may interact with each FGF molecule. Two to four FGF molecules can bind to one BCDS (which has a calculated molecular weight of 2226). This estimate is in good agreement with that reported by Mach, et al. (Biochemistry 32: 5480-5489 (1993)) of a stoichiometry of 1:4-6 determined by a variety of different approaches including light scattering and analytical ultracentrifugation analyses.
(§5) Table I presents the thermodynamic dissociation constants obtained from fluorescence quenching experiments for the wild-type FGF and the mutants using heparin or BCDS.

[2] = molecular target: T2, human FGF-2 mutant gln¹²⁹FGF-2 (arginine-129 replaced by glutamine) (Homo sapiens, UniProt P09038, A136E/R262Q/S138E); format: binding; settings: tryptophan fluorescence quenching, 10 mM Tris-HCl, pH 7.4, 2 mM dithiothreitol, read-out: KD BCDS
T2 construct: a synthetic gene encoding the 155 amino acid form of human FGF-2; made in house; host or cells: E. coli BL21 plys S
T2 sequence (P09038 134-288 A136E/S138E/R262Q): as the sequence (P09038 134-288 A136E/S138E/K261Q) above, with Q128K, R129Q counted along it
Method: as §1, §2, §3, §4, §5

[3] = molecular target: T3, human FGF-2 mutant gln¹³⁴FGF-2 (lysine-134 replaced by glutamine) (Homo sapiens, UniProt P09038, A136E/K267Q/S138E); format: binding; settings: tryptophan fluorescence quenching, 10 mM Tris-HCl, pH 7.4, 2 mM dithiothreitol, read-out: KD BCDS
T3 construct: a synthetic gene encoding the 155 amino acid form of human FGF-2; made in house; host or cells: E. coli BL21 plys S
T3 sequence (P09038 134-288 A136E/S138E/K267Q): as the sequence (P09038 134-288 A136E/S138E/K261Q) above, with Q128K, K134Q counted along it
Method: as §1, §2, §3, §4, §5

[4] = molecular target: T4, human FGF-2 mutant gln¹³⁸FGF-2 (lysine-138 replaced by glutamine) (Homo sapiens, UniProt P09038, A136E/K271Q/S138E); format: binding; settings: tryptophan fluorescence quenching, 10 mM Tris-HCl, pH 7.4, 2 mM dithiothreitol, read-out: KD BCDS
T4 construct: a synthetic gene encoding the 155 amino acid form of human FGF-2; made in house; host or cells: E. coli BL21 plys S
T4 sequence (P09038 134-288 A136E/S138E/K271Q): as the sequence (P09038 134-288 A136E/S138E/K261Q) above, with Q128K, K138Q counted along it
Method: as §1, §2, §3, §4, §5

[5] = molecular target: T5, human FGF-2, wild-type (recombinant glu^3,5FGF-2) (Homo sapiens, UniProt P09038, A136E/S138E); format: binding; settings: wild-type FGF-2; tryptophan fluorescence quenching, 10 mM Tris-HCl, pH 7.4, 2 mM dithiothreitol; read-out: KD BCDS
T5 construct: a synthetic gene encoding the 155 amino acid form of human FGF-2; made in house; host or cells: E. coli BL21 plys S (stated for the mutants; inferred for the wild type)
T5 sequence (P09038 134-288 A136E/S138E): as the sequence (P09038 134-288 A136E/S138E/K261Q) above, with Q128K counted along it
Method: as §1, §2, §3, §4, §5

[6] = molecular target: T6, human FGF-2 mutant gln^128,138FGF-2 (lysine-128 and lysine-138 replaced by glutamine) (Homo sapiens, UniProt P09038, A136E/K261Q/K271Q/S138E); format: binding; settings: tryptophan fluorescence quenching, 10 mM Tris-HCl, pH 7.4, 2 mM dithiothreitol, read-out: KD BCDS
T6 construct: a synthetic gene encoding the 155 amino acid form of human FGF-2; made in house; host or cells: E. coli BL21 plys S
T6 sequence (P09038 134-288 A136E/S138E/K261Q/K271Q): as the sequence (P09038 134-288 A136E/S138E/K261Q) above, with K138Q counted along it
Method: as §1, §2, §3, §4, §5

[7] = molecular target: T7, human FGF-2 mutant gln^129,134FGF-2 (arginine-129 and lysine-134 replaced by glutamine) (Homo sapiens, UniProt P09038, A136E/K267Q/R262Q/S138E); format: binding; settings: tryptophan fluorescence quenching, 10 mM Tris-HCl, pH 7.4, 2 mM dithiothreitol, read-out: KD BCDS
T7 construct: a synthetic gene encoding the 155 amino acid form of human FGF-2; made in house; host or cells: E. coli BL21 plys S
T7 sequence (P09038 134-288 A136E/S138E/R262Q/K267Q): as the sequence (P09038 134-288 A136E/S138E/K261Q) above, with Q128K, R129Q, K134Q counted along it
Method: as §1, §2, §3, §4, §5

[8] = molecular target: FGF-1 (acidic FGF) (Homo sapiens, UniProt P05230); settings: tryptophan fluorescence quenching, 10 mM Tris-HCl, pH 7.4, 2 mM dithiothreitol, fitted with n binding sites per ligand, read-out: KD BCDS
Chain of FGF-1 (acidic FGF) (P05230 whole entry, species assumed): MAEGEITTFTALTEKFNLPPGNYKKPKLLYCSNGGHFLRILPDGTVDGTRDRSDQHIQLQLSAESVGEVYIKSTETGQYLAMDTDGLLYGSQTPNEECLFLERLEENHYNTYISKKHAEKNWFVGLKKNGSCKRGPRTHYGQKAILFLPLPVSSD
Method: as §1, §2
The thermodynamic dissociation constant (KD) is obtained from plots of fluorescence intensity versus ligand concentration. The fluorescence intensity data are fitted by non-linear regression by using equation 1 below, where FO is observed fluorescence intensity, FI is initial intensity, Δ F is the difference between final and the initial fluorescence intensities, Ct is the total FGF protein concentration, KD is the thermodynamic dissociation constant, and Lt is the total heparin concentration. […] However, in the fluorescence titration experiments the titration curves shown in Figure 1 cannot be fitted directly using equation 1. […]

β-cyclodextran tetradecasulfate [BCDS]
Kd [1]: 178 ± 44 nM | Kd [2]: 3 ± 1 nM | Kd [3]: 12 ± 0.1 nM | Kd [4]: 228 ± 23 nM | Kd [5]: 14 ± 7 nM | Kd [6]: 2700 ± 600 nM | Kd [7]: 130 ± 27 nM | Kd [8]: 4 ± 2 nM
